Holding throughout (assay type): in vivo
The test system of one data set is Heliothis virescens. Put plainly: Tobacco budworm (Heliothis virescens) control, insect diet in 96-well microtiter plates. Here is the method:
(§1) If not otherwise specified, the test solutions were prepared as follows: The active compound was dissolved at the desired concentration in a mixture of 1:1 (vol:vol) distilled water:acetone. The test solution was prepared at the day of use.
(§2) Test solutions were prepared in general at a concentration of 2500ppm (wt/vol).
B.3. Tobacco budworm (Heliothis virescens)
For evaluating control of Tobacco Budworm, the test unit consisted of 96-well-microtiter plates containing an insect diet and 15-25 H. virescens eggs. The compounds were formulated using a solution containing 75% v/v water and 25% v/v DMSO. Different concentrations of formulated compounds were sprayed onto the insect diet at 10µl, using a custom-built micro atomizer, at two replications. After application, microtiter plates were incubated at about 28 ± 1°C and about 80 ± 5 % relative humidity for 5 days. Egg and larval mortality was then visually assessed.

A further data set concerns Spodoptera eridania. Put plainly: Southern armyworm (Spodoptera eridania), 2nd instar larvae, sprayed lima bean plants. How it is done:
B.7. Southern armyworm (Spodoptera eridania), 2nd instar larvae
The active compounds were formulated by a Tecan liquid handler in 100% cyclohexanone as a 10'000 ppm solution supplied in tubes. The 10'000 ppm solution was serially diluted in 100% cyclohexanone to make interim solutions. These served as stock solutions for which final dilutions were made by the Tecan in 50% acetone:50% water (v/v) into 10 or 20ml glass vials. A nonionic surfactant (Kinetic®) was included in the solution at a volume of 0.01% (v/v). The vials were then inserted into an automated electrostatic sprayer equipped with an atomizing nozzle for application to plants/insects. Lima bean plants (variety Sieva) were grown 2 plants to a pot and selected for treatment at the 1st true leaf stage. Test solutions were sprayed onto the foliage by an automated electrostatic plant sprayer equipped with an atomizing spray nozzle. The plants were dried in the sprayer fume hood and then removed from the sprayer. Each pot was placed into perforated plastic bags with a zip closure. Ten to 11 armyworm larvae were placed into the bag and the bags zipped closed. Test plants were maintained in a growth room at about 25°C and about 20-40% relative humidity for 4 days, avoiding direct exposure to fluorescent light (14:10 light:dark photo-period) to prevent trapping of heat inside the bags. Mortality and reduced feeding were assessed 4 days after treatment, compared to untreated control plants.

The test system of a further data set is Dichromothrips corbetti. Put plainly: Orchid thrips (Dichromothrips corbetti), floral-immersion technique. Here is the method:
B.6. Orchid thrips (Dichromothrips corbetti)
Dichromothrips corbetti adults used for bioassay were obtained from a colony maintained continuously under laboratory conditions. For testing purposes, the test compound was diluted in a 1:1 mixture of acetone:water (vol:vol), plus Kinetic at a rate of 0.01% v/v.
Thrips potency of each compound was evaluated by using a floral-immersion technique. Each orchid petal was dipped into treatment solution and allowed to dry in Petri dishes. Treated petals were placed into individual re-sealable plastic along with about 20 adult thrips. All test arenas were held under dark condition and a temperature of about 28°C for duration of the assay. The percent mortality was recorded 72 hours after treatment.

The subject of a further data set is Myzus persicae. Put plainly: Green peach aphid (Myzus persicae), mixed life stages, systemic test via artificial diet under membrane. Here is the method:
as §1, §2
B.2. Green peach aphid (Myzus persicae) (mixed life stages)
For evaluating control of Green Peach Aphid through systemic means the test unit consisted of 96-well-microtiter plates containing liquid artificial diet under an artificial membrane. The compounds were formulated using a solution containing 75% v/v water and 25% v/v DMSO. Different concentrations of formulated compounds were pipetted into the aphid diet, using a custom-built pipette, at two replications. After application, 5 - 8 adult aphids were placed on the artificial membrane inside the microtiter plate wells. The aphids were then allowed to suck on the treated aphid diet and incubated at about 23 ± 1°C and about 50 ± 5 % relative humidity for 3 days. Aphid mortality and fecundity was then visually assessed.

A further data set deals with Aedes aegypti. Put plainly: whole plant or invertebrate. The note with it: larval mortality visually assessed after 2 days. How it is done:
as §1, §2
B.4. Yellow fever mosquito (Aedes aegypti)
For evaluating control of Yellow Fever Mosquito, the test unit consisted of 96-well-microtiter plates containing 200µl of tap water per well and 5-15 freshly hatched A. aegypti larvae. The active compounds were formulated using a solution containing 75% (v/v) water and 25% (v/v) DMSO. Different concentrations of formulated compounds or mixtures were sprayed onto the insect diet at 2.5µl, using a custom-built micro atomizer, at two replications.
After application, microtiter plates were incubated at 28 ± 1°C, 80 ± 5 % RH for 2 days. Larval mortality was then visually assessed.

The test system of another data set is Anthonomus grandis. Put plainly: Boll weevil (Anthonomus grandis) control, insect diet in 96-well microtiter plates. Here is the method:
as §1, §2
B.1. Boll weevil (Anthonomus grandis)
For evaluating control of boll weevil, the test unit consisted of 96-well-microtiter plates containing an insect diet and 5-10 A. grandis eggs.
The compounds were formulated using a solution containing 75% v/v water and 25% v/v DMSO. Different concentrations of formulated compounds were sprayed onto the insect diet at 5µl, using a custom-built micro atomizer, at two replications.
After application, microtiter plates were incubated at about 25 ± 1°C and about 75 ± 5 % relative humidity for 5 days. Egg and larval mortality were then visually assessed.

For the next data set, the system named is Plutella xylostella. Put plainly: Diamond back moth (Plutella xylostella), cabbage leaf disc dip test. How it is done:
B.5. Diamond back moth (Plutella xylostella)
The active compound was dissolved at the desired concentration in a mixture of 1:1 (vol:vol) distilled water: acetone. Surfactant (Kinetic) was added at a rate of 0.01% (vol/vol). The test solution was prepared at the day of use. Cabbage leaf discs (60mm in diameter) were dipped in test solution and air-dried. Treated leaves were placed in petri dishes lined with moistened filter paper and inoculated with ten 3rd instar larvae. Mortality was recorded 72 hours after treatment. Feeding damages were also recorded using a scale of 0-100%.

For a further data set, the system named is Bemisia argentifolii. Put plainly: Silverleaf whitefly (Bemisia argentifolii) adults, sprayed cotton plants. Here is the method:
B.8. Silverleaf whitefly (Bemisia argentifolii) (adults)
The active compounds were formulated by a Tecan liquid handler in 100% cyclohexanone as a 10,000-ppm solution supplied in tubes. The 10,000-ppm solution was serially diluted in 100% cyclohexanone to make interim solutions. These served as stock solutions for which final dilutions were made by the Tecan in 50% acetone:50% water (v/v) into 5 or 10ml glass vials. A nonionic surfactant (Kinetic®) was included in the solution at a volume of 0.01% (v/v). The vials were then inserted into an automated electrostatic sprayer equipped with an atomizing nozzle for application to plants/insects. Cotton plants at the cotyledon stage (one plant per pot) were sprayed by an automated electrostatic plant sprayer equipped with an atomizing spray nozzle. The plants were dried in the sprayer fume hood and then removed from the sprayer. Each pot was placed into a plastic cup and about 10 to 12 whitefly adults (approximately 3-5 days old) were introduced. The insects were collected using an aspirator and a nontoxic Tygon® tubing connected to a barrier pipette tip. The tip, containing the collected insects, was then gently inserted into the soil containing the treated plant, allowing insects to crawl out of the tip to reach the foliage for feeding. Cups were covered with a reusable screened lid. Test plants were maintained in a growth room at about 25°C and about 20-40% relative humidity for 3 days, avoiding direct exposure to fluorescent light (14:10 light:dark photoperiod) to prevent trapping of heat inside the cup. Mortality was assessed 3 days after treatment, compared to untreated control plants.

Where [1] appears, read: 2500ppm, egg and larval mortality visually assessed after 5 days.

Consider `COCN(C1=NOC(c2cc(Cl)c(F)c(Cl)c2)(C(F)(F)F)C1)c1ccc(Cl)c(-n2cncn2)c1` (stereo not shown) [I-21], for which the “mortality in comparison with untreated controls” value is given as “at least 75%” in the data set with Heliothis virescens (setting [1]); “at least 75%” in the data set on Spodoptera eridania (300ppm, 2nd instar larvae, assessed 4 days after treatment); “at least 75%” in the data set with Dichromothrips corbetti (300ppm, adult thrips, mortality recorded 72 hours after treatment); “at least 75%” in the data set with Myzus persicae (2500ppm, aphid mortality visually assessed after 3 days); “at least 75%” in the data set on Aedes aegypti (2500ppm); “at least 75%” in the data set on Anthonomus grandis (setting [1]). The “mortality in comparison with untreated controls” value in the data set with Plutella xylostella (300ppm, 3rd instar larvae, mortality recorded 72 hours after treatment) is “at least 75%”; in the data set with Bemisia argentifolii (300 ppm, adults, assessed 3 days after treatment), “at least 75%”.

For `Fc1c(Cl)cc(C2(C(F)(F)F)CC(Nc3ccc(Cl)c(-n4cc(C(F)(F)F)cn4)c3)=NO2)cc1Cl` (stereo not shown) [I-14, N-[4-chloro-3-[4-(trifluoromethyl)pyrazol-1-yl]phenyl]-5-(3,5-dichloro-4-fluoro-phenyl)-5-(trifluoromethyl)-4H-isoxazol-3-amine], the mortality at 2500 ppm with Heliothis virescens (Heliothis virescens, 120 h, read-out: mortality in comparison with untreated controls) was no less than 75%; in the data set on Myzus persicae (Myzus persicae, 72 h, read-out: mortality in comparison with untreated controls), no less than 75%; in the data set on Aedes aegypti (Aedes aegypti, 48 h, read-out: mortality in comparison with untreated controls), no less than 75%; in the data set on Anthonomus grandis (Anthonomus grandis, 120 h, read-out: mortality in comparison with untreated controls), no less than 75%. Moreover, the mortality at 300 ppm in the data set with Spodoptera eridania (Spodoptera eridania, 96 h, read-out: mortality in comparison with untreated controls) was no less than 75%; in the data set on Dichromothrips corbetti (Dichromothrips corbetti, 72 h, read-out: mortality in comparison with untreated controls) it was no less than 75%; in the data set with Plutella xylostella (Plutella xylostella, foliar, 72 h, read-out: mortality in comparison with untreated controls), no less than 75%; with Bemisia argentifolii (Bemisia argentifolii, 72 h, read-out: mortality in comparison with untreated controls) it was no less than 75%.

Broadly, the mortality is the percentage killed.

For the origin of these results see patent EP4238971A1, “SUBSTITUTED ISOXAZOLINE DERIVATIVES” (BASF SE, priority 2022, dated 2023).
